For experiment [1], the target named is T1, biotinylated human IL-17 (binding to IL17R/Fc) (Homo sapiens, UniProt Q16552).
T1 construct: purchased R&D Systems 317-ILB (IL-17, biotinylated); 177-IR (IL17R/Fc)
T1 sequence (Q16552 20-155 limits assumed): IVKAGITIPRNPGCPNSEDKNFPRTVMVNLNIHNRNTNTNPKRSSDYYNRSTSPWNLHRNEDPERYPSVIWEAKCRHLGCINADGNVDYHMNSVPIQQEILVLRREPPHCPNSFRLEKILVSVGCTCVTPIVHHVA
As to the kind of experiment: IL-17 competition ELISA II (captured IL17R/Fc, biotinylated IL-17). The method in brief:
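Competition read-out: absorbance at 450 nm after streptavidin-HRP/TMB detection, fitted to a 4-parameter logistic model bounded by no-competitor and blank wells to give IC50. Compound was serially diluted 5-fold from 1 μM alongside 20 nM (stock) biotinylated IL-17 on IL17R/Fc (10 nM) captured via goat anti-human IgG, 30 min at room temperature.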
On the technique in general: In an ELISA, binding on a coated surface is turned into a signal by an enzyme label.

Experiment [2] concerns the target T2, recombinant human IL17a (binding to its receptor IL17R) (Homo sapiens, UniProt Q16552).
T2 construct: purchased R&D Systems 317-ILB (IL17a); 177-IR (IL17R/Fc)
T2 sequence (Q16552 20-155 limits assumed): T1 sequence (Q16552 20-155 limits assumed)
As to the kind of experiment: IL-17 competition ELISA I (IL17a coated, IL17R/Fc binding). As to the method:
ELISA I: The ability of the compounds to block binding of IL17a to its receptor, IL17R, was analyzed in a competition ELISA format. High binding 96-well plates (Costar #9018) were coated with 20 nM of recombinant human IL17a (R&D Systems #317-ILB) in PBS (0.64 μg/mL), 100 μL/well, for 30 min at 37′C followed by 5 min at 4′C. Plates were then washed in PBST (PBS/0.05% Tween-20) on a plate washer, (Biotech EL-450) blocked with protein-free blocking buffer (Thermo Scientific #37573) in 250 μL/well for 30 min on shaker at room temperature, and then washed again. Compound dilutions prepared in PBST were added into the wells in duplicates followed by the addition of IL17R/Fc (R&D Systems #177-IR) at a final concentration of 12 nM. Plates were then incubated for 30 min at room temperature on the shaker. Wells with no compound served as a positive “no competitor” control, while wells with no IL17R/Fc and no compound served as a blank negative control. After an additional PBST wash, 50 ng/mL HRP-conjugated goat anti-human Fc IgG (KPL #04-10-20) was added to the plate for 30 min at room temperature, followed by PBST wash and addition of SureBlue™ TMB (KPL #52-00-03). After the sufficient color development, the reaction was fixed by the addition of 100 μL/well 0.5 N HCl and absorbance was measured at 450 nm on Biotek plate reader.
Data were processed using BioAssay Enterprise v10.1.4 (CambridgeSoft) software. Linear OD λ450 were plotted against log concentration (x) and fitted to a 4-parameter logistic equation. IC50 was calculated using positive ‘no competitor’ control data as an upper limit and blank control as a lower limit in each assay.

By IC50 is commonly meant the concentration that gives 50% inhibition. As to `O=C1CC2(CCCC2)CC(=O)N[C@H](Cc2ccc(NC(=O)[C@H](Cc3ccccc3Cl)NC(=O)Cc3ccccc3)cc2)C(=O)NCCCCCCCCN1` [Compound 259], the figures for the half-inhibitory concentration (IC50) in experiment [1] and in experiment [2] were < 0.1 µM and 0.1 to 1 µM, respectively.

For `CN1CCCCCNC(=O)CNC(=O)[C@@H](Cc2ccc(NC(=O)[C@H](Cc3ccccc3Cl)NC(=O)Cc3ccccc3)cc2)NC(=O)CC2(CCCC2)CC1=O` [Compound 280], the IC50 in experiment [1] and in experiment [2] was < 0.1 µM throughout.

As for `O=C1CC2(CCCC2)CC(=O)N[C@H](Cc2ccc(NC(=O)[C@H](Cc3ccccc3Cl)NC(=O)Cc3ccccc3)cc2)C(=O)NCCOCCOCCN1` [Compound 292], the values for the IC50 in experiment [1] and in experiment [2] were < 0.1 µM and 0.1 to 1 µM, respectively.

Turning to `CC(C)C[C@H](NC(=O)Cc1ccccc1)C(=O)Nc1ccc(C[C@H]2NC(=O)CC3(CCCC3)CC(=O)NCCCCCNC(=O)CNC2=O)cc1` [Compound 310], the figures for the IC50 in experiment [1] and in experiment [2] were < 0.1 µM and 0.1 to 1 µM, respectively.

Turning to `CC[C@H](C)[C@H](NC(=O)Cc1ccccc1)C(=O)Nc1ccc(C[C@H]2NC(=O)CC3(CCCC3)CC(=O)NCCCCCNC(=O)CNC2=O)cc1` [Compound 311], the IC50 in experiment [1] is < 0.1 µM; in experiment [2], 0.1 to 1 µM.

For the compound `CCCC[C@H](NC(=O)Cc1ccccc1)C(=O)Nc1ccc(C[C@H]2NC(=O)CC3(CCCC3)CC(=O)NCCCCCNC(=O)CNC2=O)cc1` [Compound 312], the IC50 in experiment [1] is < 0.1 µM; in experiment [2] it was 0.1 to 1 µM.

Turning to `CC(C)[C@H](NC(=O)Cc1ccccc1)C(=O)Nc1ccc(C[C@H]2NC(=O)CC3(CCCC3)CC(=O)NCCCCCNC(=O)CNC2=O)cc1` [Compound 313], the IC50 in experiment [1] is < 0.1 µM; in experiment [2] it was 0.1 to 1 µM.

In the case of `O=C1CNC(=O)[C@@H](Cc2ccc(NC(=O)[C@H](Cc3ccccc3Cl)NC(=O)Cc3c(F)cc(F)cc3F)cc2)NC(=O)CC2(CCCC2)CC(=O)NCCCCCN1` [Compound 325], the half-maximal inhibitory concentration (IC50) in experiment [1] and in experiment [2] was < 0.1 µM in each case.

Regarding `O=C1CC2(CCCC2)CC(=O)N[C@H](Cc2ccc(NC(=O)[C@@H](NC(=O)Cc3ccccc3)C3CCCCC3)cc2)C(=O)NCCOCCOCCN1` [Compound 333], the IC50 was < 0.1 µM in experiment [1] and 0.1 to 1 µM in experiment [2].

Take `CN1CCCCCNC(=O)CC2(CCCC2)CC(=O)N[C@H](Cc2ccc(NC(=O)[C@@H](NC(=O)Cc3ccccc3)C3CCCCC3)cc2)C(=O)NCC1=O` [Compound 335]: the IC50 is < 0.1 µM in experiment [1] and 0.1 to 1 µM in experiment [2].

With `O=C1CC2(CCCC2)CC(=O)N[C@H](Cc2ccc(NC(=O)[C@@H](NC(=O)Cc3ccc(CO)cc3)C3CCCCC3)cc2)C(=O)NCCOCCOCCN1` [Compound 344], the 50% inhibitory concentration (IC50) in experiment [1] is 0.1 to 1 µM; in experiment [2], 1 to 10 µM.

For the compound `O=C1CC2(CCCC2)CC(=O)N[C@H](Cc2ccc(NC(=O)[C@H](Cc3ccccc3Cl)NC(=O)Cc3ccccc3)cc2)C(=O)NCCCCCCN1` [Compound 345], the concentration for half-maximal inhibition (IC50) is < 0.1 µM in experiment [1] and 0.1 to 1 µM in experiment [2].

With `O=C1CC2(CCCC2)CC(=O)N[C@H](Cc2ccc(NC(=O)[C@@H](NC(=O)Cc3ccccc3)C3CCCCC3)cc2)C(=O)NCCCCCCN1` [Compound 346], the values for the IC50 in experiment [1] and in experiment [2] were < 0.1 µM and 1 to 10 µM, respectively.

As to `O=C1CC2(CCCC2)CC(=O)N[C@H](Cc2ccc(NC(=O)[C@H](Cc3ccccc3Cl)NC(=O)Cc3ccccc3)cc2)C(=O)NCCCCCCCN1` [Compound 347], the IC50 in experiment [1] is < 0.1 µM; in experiment [2], 0.1 to 1 µM.

For the compound `O=C1CC2(CCCC2)CC(=O)N[C@H](Cc2ccc(NC(=O)[C@@H](NC(=O)Cc3ccccc3)C3CCCCC3)cc2)C(=O)NCCCCCCCN1` [Compound 348], the IC50 in experiment [1] is 0.1 to 1 µM; in experiment [2], 1 to 10 µM.

Turning to `O=C1CC2(CCCC2)CC(=O)N[C@H](Cc2ccc(NC(=O)[C@H](Cc3ccccc3Cl)NC(=O)Cc3ccccc3)cc2)C(=O)NCCCCCCCCCN1` [Compound 349], the IC50 in experiment [1] is < 0.1 µM; in experiment [2], 1 to 10 µM.

As for `O=C1CC2(CCCC2)CC(=O)N[C@H](Cc2ccc(NC(=O)[C@H](Cc3ccccc3Cl)NC(=O)Cc3ccc(CO)cc3)cc2)C(=O)NCCCCCCN1` [Compound 354], the IC50 in experiment [1] is < 0.1 µM; in experiment [2], 0.1 to 1 µM.

On to `O=C1CC2(CCCC2)CC(=O)N[C@H](Cc2ccc(NC(=O)[C@@H](NC(=O)Cc3ccc(CO)cc3)C3CCCCC3)cc2)C(=O)NCCCCCCN1` [Compound 355], for which the IC50 was < 0.1 µM in experiment [1] and 1 to 10 µM in experiment [2].

Take `O=C1CC2(CCCC2)CC(=O)N[C@H](Cc2ccc(NC(=O)[C@H](Cc3ccccc3Cl)NC(=O)Cc3ccc(CO)cc3)cc2)C(=O)NCCCCCCCN1` [Compound 356]: the half-maximal inhibitory concentration (IC50) in experiment [1] is < 0.1 µM; in experiment [2], 0.1 to 1 µM.

Consider `O=C1CC2(CCCC2)CC(=O)N[C@H](Cc2ccc(NC(=O)[C@@H](NC(=O)Cc3ccc(CO)cc3)C3CCCCC3)cc2)C(=O)NCCCCCCCN1` [Compound 357], for which the IC50 in experiment [1] was < 0.1 µM; in experiment [2] it was 0.1 to 1 µM.

For `O=C1CC2(CCCC2)CC(=O)N[C@H](Cc2ccc(NC(=O)[C@H](Cc3ccccc3Cl)NC(=O)Cc3ccc(CO)cc3)cc2)C(=O)NCCCCCCCCCN1` [Compound 358], the IC50 in experiment [1] was < 0.1 µM; in experiment [2], 0.1 to 1 µM.

In the case of `O=C1CC2(CCCC2)CC(=O)N[C@H](Cc2ccc(NC(=O)[C@@H](NC(=O)Cc3ccc(CO)cc3)C3CCCCC3)cc2)C(=O)NCCCCCCCCCN1` [Compound 359], the IC50 in experiment [1] was < 0.1 µM; in experiment [2], 1 to 10 µM.

With `C[C@H]1NC(=O)[C@@H](Cc2ccc(NC(=O)[C@@H](NC(=O)Cc3ccc(CO)cc3)C3CCCCC3)cc2)NC(=O)CC2(CCCC2)CC(=O)NCCCCCNC1=O` [Compound 360], the IC50 in experiment [1] was < 0.1 µM; in experiment [2] it was 0.1 to 1 µM.

Take `O=C1CNC(=O)[C@@H](Cc2ccc(NC(=O)[C@@H](NC(=O)c3cccnc3)C3CCCCC3)cc2)NC(=O)CC2(CCCC2)CC(=O)NCCCCCN1` [Compound 362]: the half-maximal inhibitory concentration (IC50) in experiment [1] lay within 0.1 to 1 µM; in experiment [2] it was 1 to 10 µM.

For `O=C1CC2(CCCC2)CC(=O)N[C@H](Cc2ccc(NC(=O)[C@H](Cc3ccccc3Cl)NC(=O)Cc3ccc(CO)cc3)cc2)C(=O)NC/C=C/CCCCN1` [Compound 364], the values for the IC50 in experiment [1] and in experiment [2] were < 0.1 µM and 0.1 to 1 µM, respectively.

With `C[C@H]1NC(=O)[C@@H](Cc2ccc(NC(=O)[C@@H](NC(=O)c3cccnc3)C3CCCCC3)cc2)NC(=O)CC2(CCCC2)CC(=O)N[C@H](C(=O)O)CCCCNC1=O` [Compound 370], the results for the IC50 in experiment [1] and in experiment [2] were < 0.1 µM and 0.1 to 1 µM, respectively.

As for `CN1CCCCCCCCN(C)C(=O)[C@@H](Cc2ccc(N(C)C(=O)[C@H](Cc3ccccc3Cl)N(C)C(=O)c3ccccc3)cc2)N(C)C(=O)CC2(CCCC2)CC1=O` [Compound 372], the figures for the IC50 in experiment [1] and in experiment [2] were 0.1 to 1 µM and 1 to 10 µM, respectively.

Take `O=C1CNC(=O)[C@@H](Cc2ccc(NC(=O)[C@@H](NC(=O)Cc3ccc(F)c(F)c3)C3CCCCC3)cc2)NC(=O)CC2(CCCC2)CC(=O)NCCCCCN1` [Compound 373]: the IC50 in experiment [1] and in experiment [2] was < 0.1 µM throughout.

With `O=C1CNC(=O)[C@@H](Cc2ccc(NC(=O)[C@@H](NC(=O)Cc3ccc(F)cc3F)C3CCCCC3)cc2)NC(=O)CC2(CCCC2)CC(=O)NCCCCCN1` [Compound 374], the IC50 in experiment [1] and in experiment [2] was < 0.1 µM throughout.

`O=C1CNC(=O)[C@@H](Cc2ccc(NC(=O)[C@@H](NC(=O)Cc3ccc(CO)cc3)C3CCCCC3)cc2)NC(=O)CC2(CCCC2)CC(=O)NCCCCCN1` [Compound 375]: the results for the IC50 in experiment [1] and in experiment [2] were < 0.1 µM and 0.1 to 1 µM, respectively.

The values are drawn from US9284283B2, “Macrocyclic compounds for modulating IL-17” (ENSEMBLE THERAPEUTICS CORPORATION, priority 2012, dated 2016).
